Reference: US9700052B2, “Methods and compositions comprising steroid honey bee feeding inhibitors” (Iowa State University Research Foundation, Inc., priority 2015, dated 2017)

System: honey bees, Apis mellifera
Assay: Artificial styrofoam flower foraging assay with 20% sucrose nectar tube
Type: in vivo
Conditions: for Consumed, ml (nectar) / # feeding: n = 4
Protocol: To determine how the phytoecdysteroid inhibits bee foraging, we utilized artificial flowers so that the compounds can be added to a nectar source or sprayed on the surface of the artificial flower. The artificial flowers were made from green florist styrofoam blocks (12 cm^2) and petals made from blue and green tape. In the center of the styrofoam block a 2 ml test tube was inserted that contained a 20% sucrose solution in water as a substitute for nectar. The same array of holders was used as in the previous study (FIG. 2).
To determine if the repellent activity occurs in a concentration dependent manner we utilized the artificial flowers treated with various concentrations of the steroids in the nectar tube. In addition to observing the number of honey bees feeding from the nectar tube we measured the amount of nectar consumed after the observation period of about 45 min. The purified phytoecdysteroid was effective at 2.5 and 0.4 mg/ml in reducing the number of honey bees feeding on the nectar compared to lower concentrations. […] The pure 20-OH-ecdysone was also inhibitory at 1 mg/ml and 0.2 mg/ml with more foraging at the lower concentration. Cucurbitacin B was inhibitory at 0.5 mg/ml but not at 0.1 mg/ml.

[1] = 0.01 mg/ml in 2 ml nectar tube, about 45 min
[2] = 0.01 mg/ml in nectar tube, about 45 min
[3] = 0.1 mg/ml in 2 ml nectar tube, about 45 min
[4] = 0.1 mg/ml in nectar tube, about 45 min

CC(C)(O)CC[C@@H](O)[C@](C)(O)[C@H]1CC[C@@]2(O)C3=CC(=O)[C@@H]4C[C@@H](O)[C@@H](O)C[C@]4(C)[C@H]3CC[C@]12C [20-hydroxyecdysone]
Consumed, ml (nectar) [1]: 1.1 mL | # feeding [2]: 37 | Consumed, ml (nectar) [3]: 1.7 mL | # feeding [4]: 56 | Consumed, ml (nectar) (0.2 mg/ml in 2 ml nectar tube, about 45 min): 0.25 mL | inhibition of honey bees feeding on the nectar (0.2 mg/ml in nectar tube): inhibitory | # feeding (0.2 mg/ml in nectar tube, about 45 min): 17 | Consumed, ml (nectar) (1 mg/ml in 2 ml nectar tube, about 45 min): 0.05 mL | inhibition of honey bees feeding on the nectar (1 mg/ml in nectar tube): inhibitory | # feeding (1 mg/ml in nectar tube, about 45 min): 2

CC(=O)OC(C)(C)/C=C/C(=O)[C@](C)(O)[C@H]1C(O)C[C@@]2(C)[C@@H]3CC=C4[C@H](CC(O)C(=O)C4(C)C)[C@@]3(C)C(=O)C[C@]12C (stereo partly drawn) [Cucurbitacin B]
Consumed, ml (nectar) [1]: 1.9 mL | # feeding [2]: 4 | Consumed, ml (nectar) [3]: 1.2 mL | inhibition of honey bees feeding on the nectar (0.1 mg/ml in nectar tube): not | # feeding [4]: 3 | Consumed, ml (nectar) (0.5 mg/ml in 2 ml nectar tube, about 45 min): 0.3 mL | inhibition of honey bees feeding on the nectar (0.5 mg/ml in nectar tube): inhibitory | # feeding (0.5 mg/ml in nectar tube, about 45 min): 8

C[C@H]([C@H](O)CCC(C)(C)O)[C@H]1CC[C@@]2(O)C3=CC(=O)[C@@H]4C[C@@H](O)[C@@H](O)C[C@]4(C)[C@H]3CC[C@]12C [Pure ecdsyone, ecdysone]
inhibition of honey bees feeding on the nectar (0.01 mg/ml in nectar tube): not | inhibition of honey bees feeding on the nectar (0.1 mg/ml in nectar tube): inhibitory | inhibition of honey bees feeding on the nectar (1 mg/ml in nectar tube): inhibitory | Consumed, ml (nectar) (Table 5, 0.01 mg/ml in 2 ml nectar tube): 0.8 mL | # feeding (Table 5, 0.01 mg/ml in nectar tube): 24 | Consumed, ml (nectar) (Table 5, 0.1 mg/ml in 2 ml nectar tube): 0.3 mL | # feeding (Table 5, 0.1 mg/ml in nectar tube): 0 | Consumed, ml (nectar) (Table 5, 1 mg/ml in 2 ml nectar tube): 0.2 mL | # feeding (Table 5, 1 mg/ml in nectar tube): 0
